Data taken from patent US20020006421A1, “Long-acting, chemical-resistant skin emollients, moisturizers, and strengtheners” (priority 1997, published 2002).

Test: Reaction with N-acetylcysteamine (model for skin-bound sulfhydryl groups) in the presence of base, followed by 1H NMR
Conditions: for time after which the reaction was complete by NMR: 1 equivalent N-acetylcysteamine per crotonyl moiety, CDCl3
Description: As a model for skin-bound sulfhydryl groups (—SH) of cysteine residues in skin proteins, the compound N-acetylcysteamine was allowed to react with OSM in the presence of a catalytic amount of the base 1,5-diazabicyclo[4.3.0]non-5-ene (DBN) in chloroform solution.
As a model for skin-bound sulfhydryl groups (—SH) of cysteine residues in skin proteins, the compound N-acetylcysteamine was allowed to react with OCM in the presence of a catalytic amount of the base 1,5-diazabicyclo[4.3.0]non-5-ene (DBN) in chloroform solution.
As a model for skin bound sulfhydryl groups (—SH) of cysteine residues in skin proteins, the compound N-acetylcysteamine was allowed to react with DCPEG in the presence of a catalytic amount of the base 1,5-diazabicyclo[4.3.0]non-5-ene (DBN) in chloroform solution.
A solution of octadecyl S-sorbyl-3 -mercaptopropionate (10.9 mg, 0.024 mmol) in 0.3 mL of CDCl3 was added to a solution of N-acetylcysteamine (5.2 μL, 0.048 mmol) and DBN (3.1 μL, 0.025 mmol) in 0.3 mL of CDCl3. The mixture was immediately transferred to an NMR tube and the first spectrum was recorded at time=0. The reaction solution was allowed to stand at room temperature in the NMR tube for two days, and the course of the reaction was monitored by periodically recording the ^1H NMR spectrum. A total often ^1H NMR experiments were performed at time=0, 0.25, 0.5, 1, 1.5, 4.5, 12, 20.5, 26, and 39 hours.
The time course of the reaction of OSM with 2 equiv of N-acetylcysteamine in the presence of 1 equiv of DBN in 0.6 mL of CDCl3 was studied by recording ^1H NMR spectra at various times for 39 hours. The signals of the olefinic protons due to the sorbate group of OSM (δ 6.2-6.0 and δ 7.2) and that of the newly formed C═C bond of the monoadducts (δ 5.6-5.2) were monitored in particular. In the course of these experiments, it was observed that the signals at δ 6.2-6.0 and δ 7.2 disappeared, while those at δ 5.6-5.2 appeared over the first 1.5 hours of the reaction, which indicated the formation of the monoadducts. The olefinic protons signals of the monoadducts started to fade away gradually after 1.5 hours and became very weak by approximately 39 hours. These spectra may imply the formation of the diadduct.
The reaction of OCM with N-acetylcysteamine was carried out at room temperature as follows: 22.0 mg of OCM was dissolved in 0.6 mL of CDCl3 and 5.7 μL of N-acetylcysteamine (1 equivalent) was added. […] Then a catalytic amount (0.1 equiv) of the base DBN was added, and the NMR spectrum was recorded immediately and again after 5 minutes. By 5 minutes, more than 60% of the OCM had reacted as judged by the diminished integration of the resonances at 6.9 ppm and 6.1 ppm due to the vinyl protons of the crotonyl moiety of OCM. […] A COSY spectrum confirmed that the expected product, shown earlier herein, had been formed. Nucleophilic attack by the sulfur atom of N-acetylcysteamine, presumably as the thiolate anion, at the β-position of the unsaturated thiol ester generated the expected covalent adduct. […]
The reaction of DCPEG with N-acetylcysteamine was followed by NMR: 35.6 mg of DCPEG was dissolved in 0.7 mL CDCl3 and the spectrum was recorded before and after addition of N-acetylcysteamine (1 equivalent per crotonyl moiety). […]

[1] = 2 equiv N-acetylcysteamine, 1 equiv DBN, CDCl3, room temperature

Row | Compound | time after which the reaction was complete by NMR (0.1 equiv DBN) [min] | time by which the monoadduct olefinic proton signals became very weak (may imply diadduct formation) [1] | time over which sorbate olefinic signals disappeared and monoadduct signals appeared [1] [h] | OCM reacted, judged by diminished integration of the vinyl proton resonances (1 equivalent N-acetylcysteamine, 0.1 equiv DBN, CDCl3, room temperature, by 5 minutes)
1 | S,S′-dicrotonyl-α-thio-ω-mercapto[poly(ethylene glycol)] [DCPEG] | 5 |  |  | 
2 | C/C=C/C=C/C(=O)SCCC(=O)OCCCCCCCCCCCCCCCCCC [OSM, octadecyl S-sorbyl-3-mercaptopropionate] |  | approximately 39 hours | ≤ 1.5 | 
3 | C/C=C/C(=O)SCCC(=O)OCCCCCCCCCCCCCCCCCC [OCM, octadecyl S-crotonyl-3-mercaptopropionate] | 27 |  |  | more than 60%
